Data taken from patent US20190315775A1, “MODIFIED […] AND PHARMACEUTICAL COMPOSITION HAVING SAME AS ACTIVE INGREDIENT” (KEIO UNIVERSITY, priority 2016, published 2019).

How the values were obtained:
[1] = biological target: T1, cereblon (CRBN) (Homo sapiens, UniProt Q96SW2); assay: Surface plasmon resonance biosensor (BIACORE 3000) interaction with cereblon; format: binding; conditions: measured at 1 μM, 2 μM and 10 μM, FIG. 9C
T1 construct: recombinant full-length CRBN prepared by the above method was reacted with the beads; T7 tag (N); FLAG tag (C); made in house; host or cells: 293T cells (pcDNA3.3 vector), RIPA extract purified on Ni Sepharose excel
T1 sequence (Q96SW2 whole entry): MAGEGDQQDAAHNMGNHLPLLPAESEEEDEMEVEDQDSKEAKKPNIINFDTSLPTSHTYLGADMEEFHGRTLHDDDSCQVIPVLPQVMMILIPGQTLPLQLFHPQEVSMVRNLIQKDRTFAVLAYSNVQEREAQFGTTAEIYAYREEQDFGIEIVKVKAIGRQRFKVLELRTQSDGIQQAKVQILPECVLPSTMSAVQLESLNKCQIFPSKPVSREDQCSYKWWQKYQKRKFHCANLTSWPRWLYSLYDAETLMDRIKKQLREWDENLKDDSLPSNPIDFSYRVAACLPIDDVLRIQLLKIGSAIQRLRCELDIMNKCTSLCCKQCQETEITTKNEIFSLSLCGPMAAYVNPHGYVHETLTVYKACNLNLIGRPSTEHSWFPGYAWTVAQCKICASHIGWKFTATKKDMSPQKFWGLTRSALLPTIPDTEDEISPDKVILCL

[2] = system: KMS21 high-risk MM cell line; assay: MTT cell proliferation inhibition, KMS21; format: cell-based; conditions: Homo sapiens, KMS21, t(11;14), 48 hours, read-out: IC50, cell proliferation inhibitory activity, KMS21
Protocol: (§1) For examination of cell proliferation inhibitory activity, high-risk MM cell lines (KMM1, KMS11, KMS21, KMS26, KMS28, KMS34) established by Takemi Otsuki et al., of Kawasaki Medical School were used (Otsuki, T. et al., Int. J. Oncol., 15: 1205-1212, 1999). […] The genetic abnormality of these cell types, and in particular deletion of p53 gene were examined by FISH method (Chang, H. Blood, 105: 358-360, 2005) (WO2010/061862A1). […] These high-risk MM cell lines were treated with drugs such as TC11, HOEtO-TC11, PEG11(E)-TC11, and PEG11(O)-TC11 at arbitrary concentrations. […] Specifically, each high-risk MM cell line was prepared at a concentration of 2×10^5 cells/ml, and then seeded in an amount of 50 μl (1×10^4 cells) per well. After 24 hours, drugs such as TC11, HOEtO-TC11, PEG11(E)-TC11, and PEG11(O)-TC11 having arbitrary concentrations were added. At 48 hours after addition of each drug, 10 μL each of an MTT labeling reagent in Cell Proliferation Kit I [MTT] (Roche Diagnostics, Basel, Switzerland) was added. After 4 hours of treatment at 37° C., 100 μL each of solution buffer was added and then left to stand overnight at 37° C. Absorbance was measured using a microplate reader Infinit™ M1000 (Tecan, Maennedorf, Switzerland) at a wavelength of 570 nm. Cell viability was found from an absorbance ratio using absorbance at 0 μM designated as 100%. IC50 was calculated from a semi-logarithmic chart using Microsoft (registered trademark) Excel.
Moreover, the concentration dependency of the in vitro cell proliferation inhibitory activity of TC11, and its derivatives, PEG11(E)-TC11 and HOEtO-TC11 against high-risk MM cell line (KMS21) was examined in detail (FIG. 4). […] Such a phenomenon was similarly observed for other high-risk MM cell lines, KMS11, KMS34, and MUM24.

[3] = system: KMS11 high-risk MM cell line; assay: MTT cell proliferation inhibition, KMS11; format: cell-based; conditions: Homo sapiens, KMS-11, KMS11, t(4;14), del17, 48 hours, read-out: IC50, cell proliferation inhibitory activity, KMS11
Protocol: as §1

[4] = Dissolution in physiological saline for dosing; format: physicochemical; conditions: physiological saline (NaCl 0.9 w/v %) alone, dosing concentration
[5] = system: high-risk MM cell lines; assay: MTT cell proliferation inhibition, panel of high-risk MM cell lines; format: cell-based; conditions: Homo sapiens, range over the cell lines of Table 2, 48 hours
Protocol: as §1

[6] = system: KMM1 high-risk MM cell line; assay: MTT cell proliferation inhibition, KMM1; format: cell-based; conditions: Homo sapiens, KMM-1, KMM1, t(6;14), t(8;14), del17, 48 hours, read-out: IC50, cell proliferation inhibitory activity, KMM1
Protocol: as §1

[7] = system: KMS26 high-risk MM cell line; assay: MTT cell proliferation inhibition, KMS26; format: cell-based; conditions: Homo sapiens, KMS-26, KMS26, t(4;14), t(4;16), del17, 48 hours, read-out: IC50, cell proliferation inhibitory activity, KMS26
Protocol: as §1

[8] = Water solubility of drugs (saturation concentration by HPLC); format: physicochemical; conditions: 100 mM Tris-HCl (pH 7.5); for Water solubility: 25° C., saturation concentration; for Water solubility, relative ratio (numerals in parentheses): relative to TC11
[9] = system: KMS11 xenograft; assay: Antitumor effect on KMS11-bearing mice (Example 16); format: in vivo, ICR/SCID mice; conditions: for Body weight compared to the control group: at the doses suppressing tumor growth; for Tumor volume compared to the control: i.p., equimolar to TC11 60 mg/kgBW
Protocol: TC11 and its derivatives were examined for in vivo antitumor effects using 6 KMS11 xenograft model mice. KMS11 was administered to 6-week-old ICR/SCID mice at 3×10^7 cells/mouse via hypodermic injection. Tumor volume was measured over time. The day on which each tumor volume exceeded 50 mm^3 was designated as Day 1 and observation was performed for 14 days. The single dosage of TC11 was 60 mg/kgBW, the intraperitoneal dosages of PEG11(E)-TC11 and PEG11(O)-TC11 were 177.3 mg/kgBW and 163.8 mg/kgBW, respectively, which were equimolar amounts of that of TC11. […] The final composition of the solvent was 10% DMSO+1% Tween 80/physiological saline. […] Drug administration was performed for two out of every 3 days (Day 1, 2, 4, 5, 7, 8, 10, 11, […], 13). Mice were sacrificed on Day 14, and then tumor weights were measured and in vivo findings were confirmed.

[10] = system: KMS28 high-risk MM cell line; assay: MTT cell proliferation inhibition, KMS28; format: cell-based; conditions: Homo sapiens, KMS28, t(4;14), del17, 48 hours, read-out: IC50, cell proliferation inhibitory activity, KMS28
Protocol: as §1

[11] = system: MUM24 MM cell line; assay: MTT cell proliferation inhibition, MUM24; format: cell-based; conditions: Homo sapiens, MUM24, t(4;14), del13, del17, 48 hours, read-out: IC50, cell proliferation inhibitory activity, MUM24
[12] = system: KMS34 high-risk MM cell line; assay: MTT cell proliferation inhibition, KMS34; format: cell-based; conditions: Homo sapiens, KMS-34, KMS34, t(4;14), del17, 48 hours, read-out: IC50, cell proliferation inhibitory activity, KMS34
Protocol: as §1

[13] = 6 KMS11 xenograft model mice, i.p. 177.3 mg/kgBW

| SMILES | Binding to CRBN (SPR sensorgram) [1] | IC50 [2] | IC50 [3] | Dissolution in physiological saline [4] | IC50 [5] | IC50 [6] | IC50 [7] | Water solubility [8] | Water solubility, relative ratio (numerals in parentheses) [8] | Mice from which the primary lesion had completely disappeared [9, 13] | Mice having tumor sizes almost the same as at initiation of administration [9, 13] | Body weight compared to the control group ([9]; KMS11 xenograft mice) | Tumor volume compared to TC11 ([9]; KMS11 xenograft mice, i.p. 177.3 mg/kgBW, 14 days) | Tumor volume compared to the control ([9]; KMS11 xenograft mice, 14 days) | IC50 [10] | IC50 [11] | IC50 [12] |
| --- | --- | --- | --- | --- | --- | --- | --- | --- | --- | --- | --- | --- | --- | --- | --- | --- | --- |
| COCCOCCOCCOCCOCCOCCOCCOCCOCCOCCOCCOCCC(=O)OCCOc1cc2c(cc1N)C(=O)N(c1c(C(C)C)cccc1C(C)C)C2=O [PEG11(E)-TC11] | never bind to CRBN | 1.6 µM | 1.4 µM | completely dissolved | 1 to 7 µM | 6.3 µM | 2.7 µM | 8.89 g/100 ml | 4,447 × | 1 mouse | 3 mice | no decrease in body weight | significant decrease in tumor volume compared to TC11 | significant decreases in tumor volume | 6.8 µM | 1.8 µM | 2.6 µM |
| CC(C)c1cccc(C(C)C)c1N1C(=O)c2ccc(N)cc2C1=O [TC11, 2-(2,6-di-isopropylphenyl)-5-amino-1H-isoindole-1,3-dione, reference compound] | never bind to CRBN | 2.8 µM | 2 µM | hardly dissolved | 2 to 8 µM | 5.1 µM | 3 µM | 0.002 g/100 ml | 1 × | – | – | no decrease in body weight | – | significant decreases in tumor volume | 7.1 µM | 3 µM | 4 µM |
| COCCOCCOCCOCCOCCOCCOCCOCCOCCOCCOCCOCCOc1cc2c(cc1N)C(=O)N(c1c(C(C)C)cccc1C(C)C)C2=O [PEG11(O)-TC11] | never bind to CRBN | 22.7 µM | 4.8 µM | completely dissolved | 5 to 60 µM | 59.3 µM | 16.4 µM | 1.47 g/100 ml | 735 × | – | – | no decrease in body weight | – | significant decreases in tumor volume | 25.8 µM | 9.2 µM | 10.5 µM |
